Data: ChEMBL document CHEMBL1201862, “PubChem BioAssay data set” (2004)
The source made the active and inactive calls.

Legend:
[1] = target: DNA dC->dU-editing enzyme APOBEC-3G (Homo sapiens, UniProt Q9HC16); format: functional;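 further: Dose-response counterscreen measuring inhibition of APOBEC3G DNA deaminase activity, run while confirming APOBEC3A inhibitors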
[2] = target: DNA dC->dU-editing enzyme APOBEC-3A (Homo sapiens, UniProt P31941); experiment: Dose Response confirmation of small molecule APOBEC3A DNA Deaminase Inhibitors via a fluorescence-based single-stranded DNA deaminase assay. [Related pubchem assays (depositor defined):AID493011, AID493024]; format: functional
[3] = growth suppression of beta-catenin-knockout colon cells, dose response, cell-based, HCT116, human colon tumor (AID 1045); format: functional;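 further: HCT116 colon tumor cells with beta catenin knocked out; cells exposed to compound for 60 hours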
[4] = growth suppression of PTEN-null colon cells, dose response, cell-based, HCT116 PTEN knockout (AID 1047); format: functional;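 further: HCT116 colon tumor cells with PTEN knocked out; cells exposed to compound for 60 hours before readout; potency for loss of cell viability measured by luminescence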
Vero = experiment: cells; format: functional; conditions: Chlorocebus sabaeus
SN12K1 = experiment: cells; format: functional; conditions: Homo sapiens
P388 = experiment: cells; format: functional; conditions: Mus musculus
P388/ADR = experiment: cells; format: functional; conditions: Mus musculus
[5] = inhibitors of SNCA 5'UTR-driven reporter translation, confirmation, H4 neuroglioma cells, luminescence (AID 1988); format: functional, cell-based
Streptococcus = experiment: Group A Streptococcus viability loss, dose response, counter-screen for streptokinase expression inhibitor project, luminescence, BacTiterGlo (AID 1915); format: functional, organism-based;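 further: potency for reduction of bacterial viability or growth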
[6] = test system: Streptococcus sp. 'group A'; experiment: growth inhibition of control SK(-) GAS strain, dose response, counter-screen for streptokinase expression inhibitor project, luminescence, kanamycin, BacTiterGlo, confirmation (AID 1900); format: functional, organism-based
[7] = Luminescence Cell-Based Dose Response HTS to Identify Inhibitors of 5'UTR Stem-Loop Driven Prion Protein mRNA Translation in H4 Neuroglioblastoma Cells. [Related pubchem assays: 1827 (Project Summary), 1813 (Primary HTS)]; format: functional
[8] = inhibitors of firefly luciferase expression or activity, dose response, H4 neuroglioma cells, luminescence (AID 1990); format: functional, cell-based
[9] = target: T1, Zinc finger protein mex-5 (Caenorhabditis elegans, UniProt Q9XUB2); experiment: MEX-5/TCR-2 RNA interaction inhibitors, dose response, biochemical, C. elegans, fluorescence polarization (AID 1960)
T1 sequence (Q9XUB2 whole entry): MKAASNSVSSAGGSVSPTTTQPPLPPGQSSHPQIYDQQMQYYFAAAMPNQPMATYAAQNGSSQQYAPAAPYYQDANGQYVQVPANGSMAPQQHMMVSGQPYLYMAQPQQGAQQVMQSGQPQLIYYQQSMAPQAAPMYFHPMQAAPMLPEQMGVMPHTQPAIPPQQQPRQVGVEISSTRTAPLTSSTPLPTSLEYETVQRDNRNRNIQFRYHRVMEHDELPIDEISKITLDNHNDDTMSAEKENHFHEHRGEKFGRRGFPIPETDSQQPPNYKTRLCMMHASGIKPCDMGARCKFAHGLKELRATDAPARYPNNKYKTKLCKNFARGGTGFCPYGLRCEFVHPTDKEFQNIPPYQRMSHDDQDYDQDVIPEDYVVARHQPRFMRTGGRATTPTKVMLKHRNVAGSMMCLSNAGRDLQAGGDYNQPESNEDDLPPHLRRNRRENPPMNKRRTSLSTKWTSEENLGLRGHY

[10] = target: T2, RNA-binding protein pos-1 (Caenorhabditis elegans, UniProt G5EF15); experiment: inhibitors of POS-1/mex-3 RNA binding, dose response, biochemical, fluorescence polarization (AID 1964);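 further: purified POS-1 fused to maltose binding protein made in E. coli; potency of compounds blocking POS-1 binding to fluorescent RNA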
T2 sequence (G5EF15 whole entry): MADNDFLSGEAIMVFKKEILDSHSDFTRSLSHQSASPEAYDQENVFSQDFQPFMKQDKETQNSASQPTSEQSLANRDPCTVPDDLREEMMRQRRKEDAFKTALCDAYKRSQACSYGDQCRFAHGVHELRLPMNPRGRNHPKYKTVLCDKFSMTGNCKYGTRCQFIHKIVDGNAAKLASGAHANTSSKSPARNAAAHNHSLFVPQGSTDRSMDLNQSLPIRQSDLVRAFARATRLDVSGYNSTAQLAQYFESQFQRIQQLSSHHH

[11] = target: T3, Probable nicotinate-nucleotide adenylyltransferase (Staphylococcus aureus (strain N315), UniProt P65502); format: functional, Staphylococcus aureus subsp. aureus N315; conditions: read-out: IC50_Mean;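 on IC50 Mean: confirmatory dose-response retesting of NadD inhibitor hits first found in an ultra-high-throughput screen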
[12] = HEp-2 cell cytotoxicity, dose response, cytotoxicity control for RSV inhibitor project, HTS (AID 2410); format: functional; conditions: human respiratory syncytial virus
[13] = target: T3, Probable nicotinate-nucleotide adenylyltransferase; format: functional, Staphylococcus aureus subsp. aureus N315
BJ [14] = experiment: cytotoxicity toward BJ-TERT-LT-ST fibroblasts, dose response, cell-based, RAS-independent, luminescence (AID 1935); format: functional; conditions: Homo sapiens;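 further: BJ fibroblasts immortalized with TERT plus LT and ST oncogenes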
BJ [15] = experiment: cytotoxicity toward BJ-TERT fibroblasts, dose response, cell-based, RAS-independent, luminescence (AID 1933); format: functional; conditions: Homo sapiens
[16] = cytotoxicity toward DRD oncogenic fibroblasts, dose response, cell-based, non-viral oncogenic, luminescence (AID 1934); format: functional; conditions: Homo sapiens
BJ [17] = experiment: cells; format: functional, cell-based; conditions: Homo sapiens
[18] = Luminescence Cell-Based Dose Retest to Confirm Inhibitors of Cancer Stem Cells. [Related pubchem assays (depositor defined):AID2717, AID2721]; format: functional; conditions: Homo sapiens
[19] = target: T4, Heat shock factor protein 1 (Mus musculus, UniProt P38532); experiment: HSF1 potentiators in luciferase reporter cells, confirmation, cell-based, NIH3T3, luminescence, dose retest (AID 435004); format: functional;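 further: stress induced by proteasome inhibitor MG132 added 30 min after compound; luciferase reporter driven by HSF1 response element in NIH3T3 cells; actives raise luminescence as potentiators of the MG132 stress response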
T4 sequence (P38532 whole entry): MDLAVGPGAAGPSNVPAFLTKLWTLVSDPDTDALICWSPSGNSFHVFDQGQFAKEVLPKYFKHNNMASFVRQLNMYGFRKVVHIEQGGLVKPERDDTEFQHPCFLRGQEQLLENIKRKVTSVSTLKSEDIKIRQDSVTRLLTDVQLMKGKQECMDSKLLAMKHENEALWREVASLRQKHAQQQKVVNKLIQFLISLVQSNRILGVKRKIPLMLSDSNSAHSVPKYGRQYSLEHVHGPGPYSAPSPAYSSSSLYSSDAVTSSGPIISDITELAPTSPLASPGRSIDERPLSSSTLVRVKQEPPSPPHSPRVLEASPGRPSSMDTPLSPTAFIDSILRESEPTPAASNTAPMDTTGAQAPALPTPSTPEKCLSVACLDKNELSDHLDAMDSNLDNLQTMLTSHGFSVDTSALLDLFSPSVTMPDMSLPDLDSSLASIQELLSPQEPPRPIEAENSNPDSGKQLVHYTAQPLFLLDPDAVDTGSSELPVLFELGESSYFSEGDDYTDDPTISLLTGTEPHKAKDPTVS

[20] = inhibitors of HIV Env-driven cell fusion, dose response, cherry-pick (AID 652057); format: functional, cell-based
[21] = inhibitors of clade B AD8 Env fusion, dose response, cell-based, cherry-pick (AID 652062); format: functional;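 further: luciferase signal from cell-cell fusion driven by HIV-1 clade B AD8 Env; potency is for inhibitors of fusion seen as a drop in luminescence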
[22] = target: T5, Corticotropin-releasing factor receptor 2/Corticotropin-releasing factor-binding protein (Homo sapiens, UniProt P24387+Q13324); experiment: Dose Response confirmation of uHTS hits for small molecule antagonists of the CRF-binding protein and CRF-R2 receptor complex.; format: functional; conditions: read-out: IC50_Mean
T5 sequence (Q13324 whole entry): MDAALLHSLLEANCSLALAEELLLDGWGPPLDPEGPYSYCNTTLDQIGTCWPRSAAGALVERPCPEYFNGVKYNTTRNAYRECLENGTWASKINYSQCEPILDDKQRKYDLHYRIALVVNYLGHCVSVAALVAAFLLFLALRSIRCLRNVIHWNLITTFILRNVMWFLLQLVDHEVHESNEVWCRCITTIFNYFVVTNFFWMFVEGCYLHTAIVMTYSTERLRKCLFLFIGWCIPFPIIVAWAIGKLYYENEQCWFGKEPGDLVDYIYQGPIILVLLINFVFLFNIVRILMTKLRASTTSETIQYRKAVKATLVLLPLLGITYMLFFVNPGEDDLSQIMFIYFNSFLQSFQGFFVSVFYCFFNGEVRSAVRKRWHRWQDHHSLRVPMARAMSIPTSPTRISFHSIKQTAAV
T5 sequence (P24387 whole entry): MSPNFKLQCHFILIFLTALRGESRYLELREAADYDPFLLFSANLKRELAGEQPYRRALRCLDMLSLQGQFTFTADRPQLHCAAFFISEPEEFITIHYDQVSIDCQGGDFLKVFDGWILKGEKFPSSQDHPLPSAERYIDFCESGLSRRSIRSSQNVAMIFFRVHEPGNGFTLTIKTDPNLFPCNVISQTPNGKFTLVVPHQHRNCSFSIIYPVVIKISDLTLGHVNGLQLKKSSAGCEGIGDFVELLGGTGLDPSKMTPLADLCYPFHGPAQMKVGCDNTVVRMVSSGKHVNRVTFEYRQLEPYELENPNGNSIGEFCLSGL

[23] = target: T5, Corticotropin-releasing factor receptor 2/Corticotropin-releasing factor-binding protein; experiment: activators of CRF receptor 2 with binding protein – uHTS hits, confirmation (AID 602473); format: functional; conditions: read-out: EC50_Mean

DNA dC->dU-editing enzyme APOBEC-3A, sequence (P31941 whole entry): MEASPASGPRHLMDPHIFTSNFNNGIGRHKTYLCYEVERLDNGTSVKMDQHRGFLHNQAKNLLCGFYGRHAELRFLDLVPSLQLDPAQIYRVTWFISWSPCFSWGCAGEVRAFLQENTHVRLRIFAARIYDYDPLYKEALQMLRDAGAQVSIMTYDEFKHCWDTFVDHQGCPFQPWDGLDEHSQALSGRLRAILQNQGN
T3 sequence (P65502 whole entry): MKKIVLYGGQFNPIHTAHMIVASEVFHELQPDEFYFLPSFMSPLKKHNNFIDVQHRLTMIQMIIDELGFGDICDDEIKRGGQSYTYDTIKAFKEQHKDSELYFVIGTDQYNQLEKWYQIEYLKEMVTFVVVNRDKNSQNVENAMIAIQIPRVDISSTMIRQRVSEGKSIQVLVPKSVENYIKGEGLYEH
DNA dC->dU-editing enzyme APOBEC-3G, sequence (Q9HC16 whole entry): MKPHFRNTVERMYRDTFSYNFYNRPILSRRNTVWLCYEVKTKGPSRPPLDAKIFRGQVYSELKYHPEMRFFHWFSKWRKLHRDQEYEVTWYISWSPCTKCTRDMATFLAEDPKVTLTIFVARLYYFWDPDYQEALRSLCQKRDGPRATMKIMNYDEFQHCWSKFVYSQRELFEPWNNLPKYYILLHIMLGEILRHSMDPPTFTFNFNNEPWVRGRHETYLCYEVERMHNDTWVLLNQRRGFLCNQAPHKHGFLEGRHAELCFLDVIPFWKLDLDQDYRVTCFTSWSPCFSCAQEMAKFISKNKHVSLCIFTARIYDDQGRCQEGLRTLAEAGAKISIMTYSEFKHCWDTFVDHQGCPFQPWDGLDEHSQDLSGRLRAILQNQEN

CCc1n(CC(O)COCc2ccccc2)c2ccccc2[n+]1C (stereo not drawn)
IC50 [1]: 3.14 µM (active) | IC50 [2]: 2.36 µM (active)

N#CC1=C(N)OC2=C(CC/C2=C\c2ccccc2Cl)C1c1ccccc1Cl (stereo not drawn)
EC50 [3]: 18.3 µM (active) | EC50 [4]: 21.1 µM (active) | CC50 (Vero): 22 µM (active)

CC1=NN(C(=O)c2ccc(C)cc2)C(=O)C1/N=N/c1ccccc1C(=O)O (stereo not drawn)
GI50 (SN12K1): > 100 µM (inactive) | GI50 (P388): 17.5 µM (inactive) | GI50 (P388/ADR): > 100 µM (inactive)

CC(C)(C)c1ccc(C(=O)NNC(=S)NC(=O)c2cccnc2)cc1
EC50 [5]: 10.8 µM (active) | EC50 (Streptococcus): 2.42 µM (active) | EC50 [6]: 0.47 µM (active) | EC50 [7]: 18.2 µM (active) | CC50 (Vero): > 25 µM (active) | EC50 [8]: 14.4 µM (active)

C[C@@H]1C[C@]2(C[C@@H](C)[C@H]3C(C[C@@]4(C)CCC[C@@H]5C6=C[C@H](CCC34C)OC6=CC(=O)OC5(C)C)O2)OC1=O (stereo partly drawn)
GI50 (SN12K1): > 51.5 µM (inactive) | GI50 (P388): > 51.5 µM (inactive) | GI50 (P388/ADR): > 51.5 µM (inactive)

Cc1cc(C=C2C(=O)NC(=O)NC2=O)c(C)n1-c1cccnc1
EC50 [9]: 36.7 µM (inconclusive) | EC50 [10]: 64.3 µM (active)

C#CCn1/c(=N/C(=O)c2cc(-c3cccs3)nc3ccccc23)sc2cc(S(N)(=O)=O)ccc21
IC50 [11]: 24.6 µM (active) | CC50 [12]: > 50 µM (active) | IC50 [13]: 12.8 µM (active)

O=C1C(CO)=C[C@H](O)[C@H]2O[C@@H]12
GI50 (SN12K1): 116 µM (inactive) | GI50 (P388): 38.9 µM (inactive) | GI50 (P388/ADR): 29.9 µM (inactive)

O=S(=O)(NC(=Nc1ccc(Cl)c(S(=O)(=O)Nc2ccccc2Cl)c1)c1ccc(F)cc1)c1ccccc1
IC50 [11]: 80 µM (inactive) | IC50 [13]: 13.7 µM (active)

COc1cc(NCc2ccc3nc(N)nc(N)c3c2C)cc(OC)c1OC
GI50 (SN12K1): 0.025 µM (active) | GI50 (P388): 0.025 µM (active) | GI50 (P388/ADR): 0.025 µM (active)

Cc1cn(C2CC(O)C(CO)O2)c(=O)[nH]c1=O (stereo not drawn)
GI50 (SN12K1): 857 µM (inactive) | GI50 (P388): 57.4 µM (inactive) | GI50 (P388/ADR): 91.8 µM (inactive)

CCCCCCCCCC[S+]([O-])CC(CO)NC(=O)/C=C/c1c(C)nc(O)nc1O (stereo not drawn)
GI50 (SN12K1): 0.612 µM (active) | GI50 (P388): 0.0443 µM (active) | GI50 (P388/ADR): 2.25 µM (inactive)

CCOCCCn1/c(=N/C(=O)c2ccc(OC)c(OC)c2)c(C#N)cc2c(=O)n3cccc(C)c3nc21
EC50 [9]: 35.4 µM (active) | EC50 [10]: 26.8 µM (active)

COCCNC1=N[C@@H](c2ccc(Br)cc2)C(C(=O)OC)=C(C)N1Cc1ccccc1
IC50 [1]: 15.1 µM (active) | IC50 [2]: 12 µM (active)

CCCc1n(CC(O)COCc2ccccc2)c2ccccc2[n+]1C (stereo not drawn)
IC50 [1]: 4.55 µM (active) | IC50 [2]: 3.16 µM (active)

CCOC(=O)c1ccc2c(c1)C1C=CCC1C(C(=O)OCC)N2 (stereo not drawn)
EC50 [9]: > 300 µM (not active) | EC50 [10]: > 300 µM (not active)

Cc1cc2ccccn2c1C(=O)c1ccc(Cl)c([N+](=O)[O-])c1
EC50 (BJ [14]): > 150 µM (inconclusive) | EC50 (BJ [15]): > 150 µM (not active) | EC50 [16]: > 150 µM (not active) | EC50 (BJ [17]): > 150 µM (not active)

CSc1cc(=O)n2c3ccccc3c3ccnc1c32
GI50 (SN12K1): 81.5 µM (inactive) | GI50 (P388): > 100 µM (inactive) | GI50 (P388/ADR): > 100 µM (inactive)

CCSc1nnc(NC(=O)NC(CC)(C(F)(F)F)C(F)(F)F)s1
AC50 [18]: 7.03 µM (active) | CC50 (Vero): 16.5 µM (active)

CC1(C)CC(=O)C2=C(C1)N1C(=C(C#N)C2c2ccc(Cl)cc2)N=C(N)c2ccccc21 (stereo not drawn)
EC50 [19]: > 260 µM (inactive) | CC50 (Vero): > 25 µM (active)

C[C@H](CO)N1C[C@H](C)[C@H](CN(C)Cc2cccc(F)c2)OCc2ccccc2-c2ccccc2C1=O
AC50 [20]: < 0.26 µM (active) | AC50 [21]: < 0.26 µM (active)

NS(=O)(=O)c1cc(C(=O)OCC(=O)Nc2ccc3[nH]c(O)nc3c2)ccc1Cl
IC50 [1]: 8.99 µM (active) | IC50 [2]: 10.4 µM (active)

CC(C(=O)O)c1cnn(-c2ccccc2)c1-n1cccc1 (stereo not drawn)
GI50 (SN12K1): > 100 µM (inactive) | GI50 (P388): > 100 µM (inactive) | GI50 (P388/ADR): > 100 µM (inactive)

Cc1ccccc1COc1ccc(C(=O)C2=C(O)C(=O)N(CCCn3ccnc3)C2c2ccco2)cc1 (stereo not drawn)
IC50 [11]: 80 µM (inactive) | IC50 [13]: 10.5 µM (active) | IC50 [22]: > 47.1 µM (inactive) | EC50 [23]: > 53 µM (inactive)

Cc1cccc(-n2nc3c(c2NC(=O)c2ccc(Br)o2)CSC3)c1
IC50 [11]: 17.5 µM (active) | IC50 [13]: 4.58 µM (active)
